# Assays:
# [1] = system: Fusarium oxysporum; type: cell-based
# [2] = system: A. rhizogenes; experiment: In vitro antibacterial activity; type: cell-based, Agrobacterium rhizogenes
# [3] = system: Phytophthora capsici; type: cell-based; conditions: Pichia pastoris-expressed peptide
# [4] = system: Alternaria brassicicola; type: cell-based; conditions: Pichia pastoris-expressed peptide
# [5] = system: A. tumefaciens; experiment: In vitro antibacterial activity; type: cell-based
# [6] = system: Fusarium graminearum; type: cell-based; conditions: Pichia pastoris-expressed peptide
# [7] = system: Botrytis cinerea; type: cell-based; conditions: Pichia pastoris-expressed peptide
substance,measurement,setting,value
"SbDef1: endogenous Sorghum bicolor defensin antifungal peptide, 49 amino acids, SEQ ID NO: 1; expressed in Pichia pastoris (VHVCTMRNKFFHGPCMSNKNCAASCIQHRIGGGGYCSSRRQICKCTLQC; Sorghum bicolor)",IC50,[1],200 to 500 nM
same,MLC (minimal lethal concentration),[1],0.75 µM
same,antibacterial activity,[2],does not exhibit any antibacterial activity
same,IC50,[3],2000 to 3000 nM
same,MLC (minimal lethal concentration),[3],6 µM
same,IC50,[4],1500 to 2000 nM
same,MLC (minimal lethal concentration),[4],6 µM
same,antibacterial activity,[5],does not exhibit any antibacterial activity
same,IC50,[6],2000 to 3000 nM
same,MLC (minimal lethal concentration),[6],6 µM
same,IC50,[7],1500 to 2000 nM
same,MLC (minimal lethal concentration),[7],3 µM

# Reference: patent US12492229B2, “Antimicrobial peptides” (Donald Danforth Plant Science Center, priority 2019, dated 2025)
